Measurements published in patent publication US20220031848A1, “BIOINK FOR 3D DEPOSITION” (Regents of the University of Minnesota, priority 2018, published 2022).
Values belong to the molecule of their own block, whether it stands above or below them.

Key:
printed heart = assay: Fluid pressure in ventricular-like chamber of the printed heart (FIG. 11A); format: cell-based; conditions: versus spontaneous mechanical activity of the same chamber
Source text: FIG. 11A is a graph of pressure dynamics of an example printed heart using bioink described herein. […] The relatively flat line is the system baseline without contraction. Other clinically-important, physiologically complex mechanical parameters can also be measured. FIG. 11B is an optical map of an example printed heart using bioink described herein.

[1] = tested on: differentiated hiPSCs in the printed heart; assay: Calcium traces of the printed heart, first experiment (FIG. 9); format: cell-based, human; conditions: complex printed heart (FIG. 9)
hChaMPs [2] = assay: Calcium transients in hChaMPs (Fluo-4 AM), drug response; format: cell-based, human
Method: Calcium movement in hChaMPs was recorded after recovery from lactate treatment using a DMi8 fluorescence microscope (Leica, Wetzlar, Germany). hChaMPs were first cultured with 5 μM Fluo-4 acetoxymethyl ester for 30 min at 37° C. and then washed with Tyrode's salt solution for another 30 min at 37° C. After that, the plates with hChaMPs were moved onto the microscope stage and covered with a heating plate to maintain the temperature at 37° C. Fluo-4 AM intensity was recorded at a frame rate of 6.90 Hz with 30 ms exposure time. The acquired data was processed by Fiji and a custom-written script in MATLAB (MathWorks). To generate the calcium traces, background signals of nonactive regions were subtracted from fluorescence signals of beating sites and then normalized against the baseline intensity. The effects of ionotropic drugs on calcium activity of hChaMPs were also analyzed by incubating Fluo-4 AM-treated hChaMPs with 1 μM Isoproterenol or 0.5 μM Verapamil for 10 min at 37° C. prior to being imaged. Calcium transients are presented as normalized intensity (f/f0) over time, along with the average peak amplitude and the average interspike interval.

hChaMP [3] = assay: Optical mapping of voltage in hChaMP (di-4-ANEPPS); format: cell-based, human; conditions: 1 μM (FIG. 35B)
Method: The hChaMP was immersed in a 10 μM solution of the voltage-sensitive dye di-4-ANEPPS in Krebs-Ringer Buffer for 20 min. After this incubation, half of the dye solution was removed and replaced with RPMI+B27 with insulin media. After 2-5 min stabilization, hChaMPs were excited with a two diode-pumped, continuous-excitation green laser (532 nm, 1 W), and fluorescence intensity was recorded for 15 seconds using 14-bit, 80×80-pixel resolution cameras at 500 frames per second. In some hChaMPs, pacing was provided at 1 and 2 Hz via a bipolar electrode and optical mapping movies were recorded during pacing. For drug testing, hChaMPs were treated with 1 μM of isoproterenol and optical mapping movies were recorded with and without pacing.
Optical action potential duration (APD) was measured at 80% repolarization, and two-dimensional (2D) APD maps were constructed to reveal the spatial distribution of APD on the hChaMP surface. Local conduction velocity (CV) was calculated as described previously. Specifically, the distributions of activation times (AT), measured at (dV/dt)max, for the spatial regions of 3×3 pixels were fitted with the plane, and gradients of activation times gx and gy were calculated for each plane along the x- and y-axes, respectively. The magnitude of the local CV was calculated for each pixel as (gx^2+gy^2)^−1/2. Mean values for CV were calculated for the visible surface. […]

hChaMPs [4] = assay: Contractility video analysis of hChaMPs; format: cell-based; conditions: Homo sapiens; at least 3 different areas across 2 hChaMPs (FIG. 38); read-out: EC50, beat rate by contractility
Source text: Beating videos of hChaMPs were obtained at 4× on an Axiovert CFL 40 microscope at 8.7 frames per second. Beating rates (contraction, relaxation, and beats per minute) were obtained using an open source automated video analysis algorithm^4 with a macroblock size of 100×100 pixels and a maximum movement detection of 50 pixels to accommodate the robust movement of the tissue. For generation of a heat map of contractility over an entire hChaMP, a macroscale video was used with the macroblock size set to 25×25 pixels in the video analysis algorithm with a maximum movement detection of 20 pixels due to the lower magnification.

hChaMP [5] = assay: Pressure-volume catheter measurement in hChaMP; format: cell-based, human; conditions: 1 μM versus spontaneous contraction, 5 contraction cycles (FIGS. 44A, 44B)
Method: Pulse pressure and stroke volume of hChaMPs were measured using an ADV500 PV system with a PV catheter. The hChaMP was transferred to a 10 cm dish with 20 mL RPMI plus B-27 Supplement with insulin on a heating plate pre-heated to 37° C. to ensure the working temperature was always above 30° C. The PV catheter was inserted and positioned close to the apex of hChaMP to obtain clear pressure and volume signals, and the vessel through which the catheter was inserted was tied off to stabilize the construct. Isoproterenol was given by adding 20 μL of 1 mM solution into the dish to achieve the final concentration of 1 μM. […] The volume reading was further calibrated by conducting a dye dilution test. Briefly, acellular hChaMPs were first monitored by the ADV500 PV system while being compressed and released by 1.45 mm, 2.9 mm, and 4.35 mm from the side. […] Next, the hChaMP was compressed and released by 1.45 mm depth from the side for 3 times, and the hChaMP was then removed and the bulk medium was collected and examined by a Cytation 3 microplate reader at 524 nm for absorbance from which the displaced volume could be determined. […]
The acquired data was post-processed and analyzed by a custom-written script in MATLAB. […] To examine the stroke work generated by the hChaMPs, 5 random contraction cycles were used for creating PV loops and the stroke work was determined by the area in the loops.

SMILES: Cc1ccc2c(c1)C(=O)C1(O)CCN(c3ccccc3)C1=N2 (stereo not drawn) [blebbistatin]
chamber pressure amplitude (printed heart): inhibited pressure amplitudes

SMILES: Cn1c(=O)c2c(ncn2C)n(C)c1=O [caffeine]
beating rate with respect to control [1]: accelerate

EC50 (hChaMPs [2]; Homo sapiens, 5 different areas across two hChaMPs (FIG. 31), read-out: EC50, beat rate by calcium transient activity): 9 nM | EC50 (hChaMPs [4]): 9 nM
SMILES: CC(C)NCC(O)c1ccc(O)c(O)c1 (stereo not drawn) [isoproterenol]
calcium handling frequency (hChaMPs [2]; 1 μM, 10 min at 37° C.): increased in frequency | response of electrical activity to drug stimulation (hChaMP [3]): responded in a dramatic and predicted fashion | stroke work (hChaMP [5]): reduced

SMILES: COc1ccc(CCN(C)CCCC(C#N)(c2ccc(OC)c(OC)c2)C(C)C)cc1OC (stereo not drawn) [verapamil]
calcium handling amplitude (hChaMPs [2]; 0.5 μM, 10 min at 37° C.): decreased in amplitude | beating rate with respect to control [1]: slow
